Laboratory results reported in ChEMBL document CHEMBL1138978, “Studies toward the discovery of the next generation of antidepressants. Part 5: 3,4-Dihydro-2H-benzo[1,4]oxazine derivatives with dual 5-HT1A receptor and serotonin transporter affinity” (Bioorg Med Chem Lett, 2006).

How the values were obtained:
[1] = molecular target: T1, Adrenergic receptor alpha-1 (Rattus norvegicus, UniProt P15823+P23944+P43140); test: Displacement of [3H]prazosin from adrenergic alpha-1 receptor in rat cortical membrane; format: cell membranes
T1 sequence (P15823 whole entry): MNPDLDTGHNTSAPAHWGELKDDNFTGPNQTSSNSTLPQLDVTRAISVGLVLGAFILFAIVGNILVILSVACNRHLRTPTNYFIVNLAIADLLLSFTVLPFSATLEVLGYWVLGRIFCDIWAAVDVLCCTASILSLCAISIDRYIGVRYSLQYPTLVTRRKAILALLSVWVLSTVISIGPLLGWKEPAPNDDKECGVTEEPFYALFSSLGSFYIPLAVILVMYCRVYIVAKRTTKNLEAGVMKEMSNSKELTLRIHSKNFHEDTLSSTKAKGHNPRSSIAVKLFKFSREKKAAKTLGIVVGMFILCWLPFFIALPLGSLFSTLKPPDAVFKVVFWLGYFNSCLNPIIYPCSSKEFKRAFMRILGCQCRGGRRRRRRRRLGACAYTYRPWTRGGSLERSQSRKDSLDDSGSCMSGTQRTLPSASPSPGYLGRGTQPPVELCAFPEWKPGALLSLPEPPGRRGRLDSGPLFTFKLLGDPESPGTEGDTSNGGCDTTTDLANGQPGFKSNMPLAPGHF
T1 sequence (P23944 whole entry): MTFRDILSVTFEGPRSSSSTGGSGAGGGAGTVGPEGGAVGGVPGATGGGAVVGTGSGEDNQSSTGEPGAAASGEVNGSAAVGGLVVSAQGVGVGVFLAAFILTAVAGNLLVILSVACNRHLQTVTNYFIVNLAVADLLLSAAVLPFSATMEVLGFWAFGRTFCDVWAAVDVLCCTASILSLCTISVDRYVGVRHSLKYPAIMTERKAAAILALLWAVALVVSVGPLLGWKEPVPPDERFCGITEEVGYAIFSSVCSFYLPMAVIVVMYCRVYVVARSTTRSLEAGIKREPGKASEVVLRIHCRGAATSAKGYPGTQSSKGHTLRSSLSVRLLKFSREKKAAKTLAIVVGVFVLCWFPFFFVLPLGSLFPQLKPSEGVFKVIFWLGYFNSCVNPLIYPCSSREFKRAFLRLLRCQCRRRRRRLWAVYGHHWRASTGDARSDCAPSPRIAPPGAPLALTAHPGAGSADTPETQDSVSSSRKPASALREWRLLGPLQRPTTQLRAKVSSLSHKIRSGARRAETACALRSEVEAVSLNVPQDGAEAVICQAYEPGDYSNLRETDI
T1 sequence (P43140 whole entry): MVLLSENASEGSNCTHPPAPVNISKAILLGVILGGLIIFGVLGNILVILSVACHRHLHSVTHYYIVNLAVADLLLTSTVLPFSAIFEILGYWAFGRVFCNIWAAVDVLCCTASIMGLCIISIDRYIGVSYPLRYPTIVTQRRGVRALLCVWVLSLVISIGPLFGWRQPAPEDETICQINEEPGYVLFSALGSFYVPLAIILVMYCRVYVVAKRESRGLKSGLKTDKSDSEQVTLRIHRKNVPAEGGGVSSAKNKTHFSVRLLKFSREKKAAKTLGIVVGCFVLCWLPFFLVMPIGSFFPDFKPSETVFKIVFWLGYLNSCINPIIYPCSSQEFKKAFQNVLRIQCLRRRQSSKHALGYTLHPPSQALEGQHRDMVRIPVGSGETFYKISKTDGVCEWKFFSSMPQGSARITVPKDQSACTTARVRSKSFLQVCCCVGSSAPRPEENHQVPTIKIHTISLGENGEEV

[2] = molecular target: T2, 5-hydroxytryptamine receptor 1A (Homo sapiens) (UniProt P08908); test: Agonist activity assessed by stimulation of [35S]GTPgammaS binding in CHO cells expressing 5HT1A receptor relative to 5HT; format: functional, cell-based
T2 sequence (whole entry): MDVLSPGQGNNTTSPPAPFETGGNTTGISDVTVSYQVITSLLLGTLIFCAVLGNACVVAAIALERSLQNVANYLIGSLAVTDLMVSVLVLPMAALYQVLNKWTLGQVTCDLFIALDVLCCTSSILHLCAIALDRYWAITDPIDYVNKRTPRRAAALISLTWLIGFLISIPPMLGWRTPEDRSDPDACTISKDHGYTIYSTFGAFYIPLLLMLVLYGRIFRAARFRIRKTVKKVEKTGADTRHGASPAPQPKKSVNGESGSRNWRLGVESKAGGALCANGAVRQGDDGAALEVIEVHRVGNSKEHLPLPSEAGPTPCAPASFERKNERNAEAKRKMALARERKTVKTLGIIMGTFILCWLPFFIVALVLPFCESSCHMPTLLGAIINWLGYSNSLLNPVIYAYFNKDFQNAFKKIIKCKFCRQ

[3] = molecular target: Sodium-dependent serotonin transporter (Rattus norvegicus, UniProt P31652); test: Displacement of [3H]paroxetine from rat cortical 5-HT reuptake
[4] = molecular target: T3, 5-hydroxytryptamine receptor 1A (Homo sapiens, UniProt P08908); test: Intrinsic activity assessed by stimulation of [35S]GTP-gamma-S binding in CHO cells expressing 5HT1A receptor; format: functional, cell-based
T3 sequence (P08908 whole entry): T2 sequence (whole entry)

[5] = molecular target: T3, 5-hydroxytryptamine receptor 1A; test: Displacement of [3H]8-OH-DPAT from 5HT1A receptor expressed in CHO cells; format: cell-based
[6] = molecular target: Sodium-dependent serotonin transporter (Rattus norvegicus) (UniProt P31652); test: Inhibition of [3H]paroxetine binding to rat cortical 5-HT reuptake at 100 nM
[7] = molecular target: Adrenergic receptor alpha-1 (Rattus norvegicus) (UniProt P15823+P23944+P43140); test: Inhibition of [3H]prazosin binding to adrenergic alpha-1 receptor in rat cortical membrane at 100 nM; format: cell membranes

Sodium-dependent serotonin transporter, sequence (P31652 whole entry): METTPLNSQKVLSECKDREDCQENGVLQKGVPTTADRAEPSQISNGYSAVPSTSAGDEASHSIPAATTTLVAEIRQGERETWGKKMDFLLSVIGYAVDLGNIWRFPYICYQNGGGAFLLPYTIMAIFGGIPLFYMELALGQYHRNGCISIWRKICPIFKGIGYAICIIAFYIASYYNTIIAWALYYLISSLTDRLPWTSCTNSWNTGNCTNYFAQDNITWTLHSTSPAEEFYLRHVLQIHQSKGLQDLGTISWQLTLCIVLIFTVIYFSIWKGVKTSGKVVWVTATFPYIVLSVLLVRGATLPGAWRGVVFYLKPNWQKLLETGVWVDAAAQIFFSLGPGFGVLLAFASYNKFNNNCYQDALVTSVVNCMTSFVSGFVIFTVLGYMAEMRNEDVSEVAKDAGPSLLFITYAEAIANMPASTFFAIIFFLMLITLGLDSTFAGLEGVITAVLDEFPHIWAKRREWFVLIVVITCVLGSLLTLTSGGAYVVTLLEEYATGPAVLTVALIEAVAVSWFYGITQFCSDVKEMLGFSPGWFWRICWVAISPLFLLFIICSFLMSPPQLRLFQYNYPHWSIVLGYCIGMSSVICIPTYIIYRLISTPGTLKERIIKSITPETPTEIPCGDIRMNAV
Sodium-dependent serotonin transporter (Rattus norvegicus), sequence (P31652 whole entry): as above

SMILES	Emax [2] [%]	Ki [3] [nM]	EC50 [4] [nM]	Ki [5] [nM]	inhibition [6] [%]	inhibition [7] [%]	Ki [1] [nM]
COc1cccc2c1OC(CN1CC=C(c3c[nH]c4ccc(F)cc34)CC1)CN2 (centres undefined)	35	6.94	386				14.5
c1ccc(N2CC(CNCCCc3c[nH]c4ccccc34)Oc3ccccc32)cc1 (centres undefined)				75.8	7		
c1ccc(N2CC(CNCCc3c[nH]c4ccccc34)Oc3ccccc32)cc1 (centres undefined)				30.2	23		
COc1cccc2c1OC(CN1CC=C(c3c[nH]c4ccc(F)cc34)CC1)CN2C (centres undefined)	93	12.6	190				96.5
CCCN1CC(CN2CC=C(c3c[nH]c4ccc(F)cc34)CC2)Oc2c(OC)cccc21 (centres undefined)	92	22.6	135				505.5
CCN1CC(CN2CC=C(c3c[nH]c4ccc(F)cc34)CC2)Oc2c(OC)cccc21 (centres undefined)	54	13.2	418				229
c1ccc2c(c1)NCC(CNCCc1c[nH]c3ccccc13)O2 (centres undefined)	96	89.8	93.5	6.91		26	
c1ccc(CN2CC(CNCCCc3c[nH]c4ccccc34)Oc3ccccc32)cc1 (centres undefined)	64	109	1380	76.1			
CCN1CC(CNCCc2c[nH]c3ccc(F)cc23)Oc2ccccc21 (centres undefined)	100	15.3	90	15.3			
Fc1ccc2[nH]cc(CCNCC3CN(c4ccccc4)c4ccccc4O3)c2c1 (centres undefined)				7.14	43	65	
CC(C)N1CC(CNCCCc2c[nH]c3ccccc23)Oc2ccccc21 (centres undefined)	88	23.8	329	90.4			
C1=C(c2c[nH]c3ccccc23)CCN(CC2CNc3ccccc3O2)C1 (centres undefined)	62	8.37	1130				16.6
CCCN1CC(CNCCc2c[nH]c3ccccc23)Oc2ccccc21 (centres undefined)	100	22.7	196	12.8			481

More lines, main results first:

Emax [2] [%]	Ki [3] [nM]	EC50 [4] [nM]	Ki [5] [nM]	inhibition [6] [%]	inhibition [7] [%]	SMILES	Ki [1] [nM]
100	16	155	11			Fc1ccc2[nH]cc(CCNCC3CNc4ccccc4O3)c2c1 (centres undefined)	70
66	3.13	52.2	9.31			COc1cccc2c1OC(CNCCc1c[nH]c3ccc(F)cc13)CN2 (centres undefined)	7.6
56	11.7	181	103			COc1ccc2c(c1)OC(CNCCc1c[nH]c3ccc(F)cc13)CN2 (centres undefined)	44.5
88	51.5	329	8.15			CC(C)CN1CC(CNCCc2c[nH]c3ccc(F)cc23)Oc2ccccc21 (centres undefined)	
			7.25	23		Fc1ccc2[nH]cc(CCNCC3CN(Cc4ccccc4)c4ccccc4O3)c2c1 (centres undefined)	
64	42.6	336	75.2			CN1CC(CNCCc2c[nH]c3ccc(F)cc23)Oc2cc(Cl)ccc21 (centres undefined)	607
90	21.1	191	2.81			CC(C)N1CC(CNCCc2c[nH]c3ccc(F)cc23)Oc2ccccc21 (centres undefined)	
80	12.4	167	8.46		26	CN1CC(CNCCc2c[nH]c3ccc(F)cc23)Oc2ccccc21 (centres undefined)	
95	88.5	33.6	5.86		28	CN1CC(CNCCc2c[nH]c3ccccc23)Oc2ccccc21 (centres undefined)	
